Laboratory results taken from patent US10125365B2, “Micro-RNAs and compositions comprising same for the treatment and diagnosis of serotonin-, adrenalin-, noradrenalin-, glutamate-, and corticotropin-releasing hormone- associated medical conditions” (Yeda Research and Development Co. Ltd., priority 2014, dated 2018).

Legend:
[1] = test system: mice; assay: Tail suspension test; assay type: in vivo, mouse; conditions: miR135b KD and control KD mice
Protocol: The tail suspension test was performed in the TSE Tail Suspension Monitor (TSE Systems, Bad Homburg, Germany). Each mouse was taped by the tip of its tail, and suspended from the force sensor for 10 minutes. Time spent immobile and time spent struggling were calculated and recorded by the software based on pre-set thresholds.

[2] = test system: miR-135a; assay: Real time PCR of miR-135a in raphe nucleus after antidepressant treatment; assay type: in vivo, mouse; conditions: mice, 20 mg/kg i.p., acute or chronic administration
Protocol: Mice received i.p. injection of tricyclic-Imipramine, or SSRI-Fluoxetine, or NRI-Reboxetine (20 mg/kg in saline) or saline.
Blunted 14G syringes were used to extract the RN region from 3 mm slices removed from the matrix.
(§1) For behavioral testing, mice were injected with 20 mg/kg SSRI i.p. 30 minutes prior to the test.
Samples were then analyzed using SYBR® Green

[3] = test system: miR-135b; assay: Real time PCR of miR-135b in raphe nucleus after antidepressant treatment; conditions: mice, 20 mg/kg i.p., acute or chronic administration
[4] = test system: mice; assay: Social avoidance test after chronic social defeat; assay type: in vivo, mouse; conditions: mice exposed to social defeat, chronic treatment vs saline
Protocol: Mice were subjected to a social defeat protocol as previously described (Elliott et al., 2010). Briefly, mice were placed in a home cage of an aggressive ICR mouse where they physically interacted for five minutes. […] Perforated clear Plexiglas dividers were then placed between the animals and the mice remained in the same cage for 24 hours to allow sensory contact. The procedure was then repeated with an unfamiliar ICR mouse for 10 consecutive days.
as §1
Social avoidance test: In the social avoidance test, mice were placed in a 15 cm×35 cm arena with a small 15 cm×8 cm neighboring chamber separated by a divider with small open slits allowing full sensory contact. The tested mice were allowed to habituate to the arena for three minutes, and then an unfamiliar ICR mouse was placed in the neighboring chamber for another three minutes. Time spent near the divider was quantified using video tracking by Ethovision software (Noldus, Wageningen, Netherlands). Interaction ratio was calculated by dividing the time the mice spent in a defined area near the unfamiliar ICR to the time the mice spent in the same area during habitation, and multiplied by 100.

[5] = test system: Slc6a4 3′UTR; assay: Luciferase reporter assay, Slc6a4 3′UTR; assay type: cell-based, mouse; conditions: HEK293T cells, miR over-expressing vector vs empty vector
Protocol: (§2) 3′UTR sequences of Slc6a4, Htr1a, MaoA and Tph2 were PCR amplified from mouse genomic DNA, or total brain cDNA. 3′UTR PCR fragments were ligated into pGEM-T easy vector (Promega) according to the manufacturer's guidelines, and further subcloned into a single NotI site at the 3′ end of luciferase in the Psicheck2 reporter plasmid (Promega). […] Cloning orientation was verified by diagnostic cuts and by sequencing.
(§3) HEK293T cells were grown on poly-L-lysine in 48-well format to a 70-85% confluence and transfected using Polyethyleneimine with the following plasmids: 5 ng of Psicheck2-3′UTR plasmid and 215 ng of over-expressing vector for a specific miRNA, or empty-miR-vec over-expression plasmids. 24 hours following transfection cells were lysed and luciferase reporters activity were assayed as previously described [Chen A. et al. Mol Endocrinol (2005) 19: 441-58]. Renilla luciferase values were normalized to control firefly luciferase levels (transcribed from the same vector but not affected by 3′UTR tested) and averaged across six well repetitions per condition.
3′ UTRs sequences of Slc6a4 and Htr1a were PCR amplified from mouse genomic DNA. 3′UTRs PCR fragments were ligated into pGEM-T easy vector (Promega) according to the manufacturer's guidelines, and further sub-cloned into a single NotI site at the 3′ end of luciferase in the psiCHECK-2 reporter plasmid (Promega). […]

[6] = test system: Htr1a 3′UTR; assay: Luciferase reporter assay, Htr1a 3′UTR; assay type: cell-based, mouse; conditions: for repression of Htr1a 3′UTR (luciferase): HEK293T cells, miR over-expressing vector vs empty vector; for seed match through which Htr1a 3′UTR is repressed: Htr1a miR-135 seed matches mutated individually or both
Protocol: as §2, §3
3′UTR sequence of Htr1a was PCR amplified from mouse genomic DNA. 3′UTR PCR fragments were ligated into pGEM-T easy vector (Promega) according to the manufacturer's guidelines, and further subcloned into a single NotI site at the 3′ end of luciferase in the Psicheck2 reporter plasmid (Promega). Cloning orientation was verified by diagnostic cuts and by sequencing.
as §3, with “plasmids:” for “plasmids: 5 ng of”, “Psicheck2-3′UTR plasmid, pre-mmu-miR-182 over-expression in pEGFP” for “Psicheck2-3′UTR”, “plasmid” for “plasmid and 215 ng of over-expressing vector for a specific miRNA,”, “pEGFP plasmid alone (clontech).” for “empty-miR-vec over-expression plasmids.”
3′ UTRs sequences of Slc6a4 and Htr1a were PCR amplified from mouse genomic DNA. 3′UTRs PCR fragments were ligated into pGEM-T easy vector (Promega) according to the manufacturer's guidelines, and further sub-cloned into a single NotI site at the 3′ end of luciferase in the psiCHECK-2 reporter plasmid (Promega). […] Cloning orientation was verified by diagnostic cuts and sequencing.
Twenty-four hours following transfection cells were lysed and luciferase reporter activities were assayed as previously described (Kuperman et al., 2011). […]

[7] = test system: miR-19a/b; assay: miR-19a/b levels in prefrontal cortex after Reboxetine; assay type: in vivo, mouse; conditions: mice
Description: These animals will be also tested for anxiety like behavior, locomotor activity and memory performance. Furthermore, the levels of expression of miR-19a and miR-19b are examined in different regions of interest (E.G the hippocampus, amygdala and forebrain) following an acute and chronic systemic treatment with the Noradrenaline reuptake inhibitor Reboxetine in WT mice.
The physiological link between miRNA-19 and Adrb1 was studied by assessing the level of miR-19a/b in the prefrontal cortex (PFC) of mice that were injected with Reboxetine, a noradrenalin reuptake inhibitor (NRI), either acutely or chronically (FIGS. 12A-D).

Molecule | miR-135a expression levels in the RN [2] | repression of Slc6a4 3′UTR (luciferase) [5] | repression of Htr1a 3′UTR (luciferase) [6] | seed match through which Htr1a 3′UTR is repressed [6] | further results
CNCCC(Oc1ccc(C(F)(F)F)cc1)c1ccccc1 (stereo not drawn) [Fluoxetine] | robust increase | – | – | – | immobility time, tail suspension test, treated vs basal [1]: decrease in immobility time
CN(C)CCCN1c2ccccc2CCc2ccccc21 [Imipramine] | – | – | – | – | miR-135b expression levels in the RN [3]: increased; social avoidance (interaction ratio) [4]: not those who received imipramine developed social avoidance; miR-135a expression levels in the RN ([2]; 20 mg/kg): increased; miR-135a expression levels in the RN ([2]; listed as imipramine, 20 mg/kg): significantly increased
miR-135a: mature miR-135a, Accession No. MIMAT0000428 (SEQ ID NO: 61); tested via overexpressing vector (SEQ ID NO: 210) (UAUGGCUUUUUAUUCCUAUGUGA; listed as Homo sapiens) | – | approximately 30% | approximately 30% | via the distal and not the proximal seed match | –
miR-135b: mature miR-135b, Accession No. MIMAT0000758 (SEQ ID NO: 62); tested via overexpressing vector (SEQ ID NO: 211) (UAUGGCUUUUCAUUCCUAUGUGA; listed as Homo sapiens) | – | approximately 50% | approximately 50% | via both predicted sites | –
CCOc1ccccc1OC(c1ccccc1)C1CNCCO1 (stereo not drawn) [Reboxetine] | no differences | – | – | – | miR-19 a/b levels in the PFC, acute administration ([7]; acute): down regulated; miR-19 a/b levels in the PFC, chronic administration ([7]; chronic): upregulated
